# Reference: paper PMC5533298 (Structure (London, England : 1993), 2017)
# Key:
# Assay in all cases: absorbance of p-nitrophenol at […] nm
# Assay type in all cases: biochemical
# BuGUS = molecular target: T1, BuGUS (Bacteroides uniformis, UniProt A0A078SUX9); conditions: 800 uM PNPG, optimal pH, 37 C, 50 mM HEPES
# T1 sequence (A0A078SUX9 32-886 limits assumed): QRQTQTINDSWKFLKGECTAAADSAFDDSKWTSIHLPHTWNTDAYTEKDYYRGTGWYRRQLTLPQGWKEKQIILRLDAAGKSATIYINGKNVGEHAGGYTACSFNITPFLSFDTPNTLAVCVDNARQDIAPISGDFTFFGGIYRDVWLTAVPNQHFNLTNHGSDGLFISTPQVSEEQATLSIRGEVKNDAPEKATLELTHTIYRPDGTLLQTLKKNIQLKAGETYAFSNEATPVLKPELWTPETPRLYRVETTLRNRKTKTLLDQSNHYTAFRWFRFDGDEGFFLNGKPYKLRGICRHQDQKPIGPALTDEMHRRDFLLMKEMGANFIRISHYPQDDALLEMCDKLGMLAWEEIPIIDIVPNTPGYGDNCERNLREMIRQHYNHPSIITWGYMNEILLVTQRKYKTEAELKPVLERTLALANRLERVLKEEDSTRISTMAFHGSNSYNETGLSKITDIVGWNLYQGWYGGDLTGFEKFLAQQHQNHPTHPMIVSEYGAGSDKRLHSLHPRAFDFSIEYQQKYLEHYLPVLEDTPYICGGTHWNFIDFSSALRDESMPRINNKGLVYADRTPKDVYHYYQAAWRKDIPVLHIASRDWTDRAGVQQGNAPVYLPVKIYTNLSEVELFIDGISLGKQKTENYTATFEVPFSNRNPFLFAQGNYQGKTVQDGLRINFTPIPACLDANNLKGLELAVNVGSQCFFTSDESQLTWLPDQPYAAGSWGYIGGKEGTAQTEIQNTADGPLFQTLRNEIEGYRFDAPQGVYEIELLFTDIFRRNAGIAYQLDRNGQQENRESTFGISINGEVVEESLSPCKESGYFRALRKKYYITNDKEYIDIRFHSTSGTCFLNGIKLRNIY
# BfGUS = BfGUS (Bacteroides fragilis, UniProt Q5LIC7); conditions: 800 uM PNPG, optimal pH, 37 C, 50 mM HEPES
# BdGUS = molecular target: T2, BdGUS (Phocaeicola dorei, UniProt Z9QL54SLC8); conditions: 800 uM PNPG, optimal pH, 37 C, 50 mM HEPES
# T2 sequence (Z9QL54SLC8 25-879): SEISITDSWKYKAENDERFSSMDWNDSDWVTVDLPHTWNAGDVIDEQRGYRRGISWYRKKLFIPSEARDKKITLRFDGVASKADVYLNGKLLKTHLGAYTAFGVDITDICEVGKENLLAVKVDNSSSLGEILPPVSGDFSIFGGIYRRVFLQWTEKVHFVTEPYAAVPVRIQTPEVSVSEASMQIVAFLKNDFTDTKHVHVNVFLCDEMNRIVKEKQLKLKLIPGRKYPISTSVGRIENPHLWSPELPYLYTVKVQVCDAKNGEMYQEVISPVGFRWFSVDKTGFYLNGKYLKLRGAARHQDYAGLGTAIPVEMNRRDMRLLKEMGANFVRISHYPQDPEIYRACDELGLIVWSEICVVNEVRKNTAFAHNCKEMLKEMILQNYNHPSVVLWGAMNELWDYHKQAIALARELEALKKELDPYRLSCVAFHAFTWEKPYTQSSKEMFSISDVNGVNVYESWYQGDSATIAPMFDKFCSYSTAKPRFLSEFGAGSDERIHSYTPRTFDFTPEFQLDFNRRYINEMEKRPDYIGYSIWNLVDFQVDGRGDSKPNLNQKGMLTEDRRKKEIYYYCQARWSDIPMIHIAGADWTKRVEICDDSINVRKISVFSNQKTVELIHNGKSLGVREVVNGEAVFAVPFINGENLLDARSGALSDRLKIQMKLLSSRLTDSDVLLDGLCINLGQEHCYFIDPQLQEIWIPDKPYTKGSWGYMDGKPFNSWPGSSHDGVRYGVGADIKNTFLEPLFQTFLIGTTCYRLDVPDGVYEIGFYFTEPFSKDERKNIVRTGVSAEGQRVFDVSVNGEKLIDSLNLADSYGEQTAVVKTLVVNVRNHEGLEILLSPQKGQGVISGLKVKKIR
# EcGUS = EcGUS (Escherichia coli, UniProt P05804); conditions: 800 uM PNPG, optimal pH (broad, up to 7.4), 37 C, 50 mM HEPES
# EeGUS = molecular target: T3, EeGUS (Lachnospira eligens, UniProt C4Z6Z2); conditions: 800 uM PNPG, pH 6.5, 37 C, 50 mM HEPES
# T3 sequence (C4Z6Z2 1-611): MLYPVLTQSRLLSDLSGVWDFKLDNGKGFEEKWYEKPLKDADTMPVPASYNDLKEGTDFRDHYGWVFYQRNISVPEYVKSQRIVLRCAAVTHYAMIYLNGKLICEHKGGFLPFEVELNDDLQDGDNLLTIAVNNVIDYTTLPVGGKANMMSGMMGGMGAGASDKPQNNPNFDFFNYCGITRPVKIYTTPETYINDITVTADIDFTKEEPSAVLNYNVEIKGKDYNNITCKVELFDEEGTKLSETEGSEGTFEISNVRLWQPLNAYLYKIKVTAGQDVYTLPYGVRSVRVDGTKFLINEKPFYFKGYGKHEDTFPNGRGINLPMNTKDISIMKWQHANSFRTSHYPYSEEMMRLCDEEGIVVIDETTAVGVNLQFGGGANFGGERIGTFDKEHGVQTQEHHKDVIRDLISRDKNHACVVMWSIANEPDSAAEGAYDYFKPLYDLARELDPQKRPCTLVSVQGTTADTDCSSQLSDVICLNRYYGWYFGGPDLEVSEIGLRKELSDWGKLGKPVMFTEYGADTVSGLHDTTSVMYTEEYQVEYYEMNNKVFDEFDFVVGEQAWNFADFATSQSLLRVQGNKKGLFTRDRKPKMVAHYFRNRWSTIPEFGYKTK
# PmGUS = molecular target: T4, PmGUS (Parabacteroides merdae, UniProt K5ZWV5); conditions: 800 uM PNPG, optimal pH, 37 C, 50 mM HEPES
# T4 sequence (K5ZWV5 20-826): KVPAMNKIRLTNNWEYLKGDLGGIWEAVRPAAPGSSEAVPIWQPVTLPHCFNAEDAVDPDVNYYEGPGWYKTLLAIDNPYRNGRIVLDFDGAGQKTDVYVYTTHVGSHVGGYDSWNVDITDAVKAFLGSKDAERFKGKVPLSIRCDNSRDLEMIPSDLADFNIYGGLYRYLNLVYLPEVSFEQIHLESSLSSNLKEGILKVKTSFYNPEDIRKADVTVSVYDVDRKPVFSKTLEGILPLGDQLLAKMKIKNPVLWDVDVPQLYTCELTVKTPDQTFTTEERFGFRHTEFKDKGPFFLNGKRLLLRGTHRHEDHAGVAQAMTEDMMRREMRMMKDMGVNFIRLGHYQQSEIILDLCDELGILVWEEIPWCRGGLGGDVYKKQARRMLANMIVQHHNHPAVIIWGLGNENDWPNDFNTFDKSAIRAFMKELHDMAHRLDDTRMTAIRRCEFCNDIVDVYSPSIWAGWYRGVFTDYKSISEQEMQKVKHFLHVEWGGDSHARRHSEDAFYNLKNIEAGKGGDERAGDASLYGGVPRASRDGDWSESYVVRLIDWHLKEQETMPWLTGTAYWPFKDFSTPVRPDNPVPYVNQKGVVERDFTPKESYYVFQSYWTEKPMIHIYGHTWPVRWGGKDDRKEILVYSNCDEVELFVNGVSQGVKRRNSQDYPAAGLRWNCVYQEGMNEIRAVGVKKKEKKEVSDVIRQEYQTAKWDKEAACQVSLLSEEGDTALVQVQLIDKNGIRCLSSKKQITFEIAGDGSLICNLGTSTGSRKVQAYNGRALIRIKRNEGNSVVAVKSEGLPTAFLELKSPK
# Chain of BfGUS (Q5LIC7 38-693): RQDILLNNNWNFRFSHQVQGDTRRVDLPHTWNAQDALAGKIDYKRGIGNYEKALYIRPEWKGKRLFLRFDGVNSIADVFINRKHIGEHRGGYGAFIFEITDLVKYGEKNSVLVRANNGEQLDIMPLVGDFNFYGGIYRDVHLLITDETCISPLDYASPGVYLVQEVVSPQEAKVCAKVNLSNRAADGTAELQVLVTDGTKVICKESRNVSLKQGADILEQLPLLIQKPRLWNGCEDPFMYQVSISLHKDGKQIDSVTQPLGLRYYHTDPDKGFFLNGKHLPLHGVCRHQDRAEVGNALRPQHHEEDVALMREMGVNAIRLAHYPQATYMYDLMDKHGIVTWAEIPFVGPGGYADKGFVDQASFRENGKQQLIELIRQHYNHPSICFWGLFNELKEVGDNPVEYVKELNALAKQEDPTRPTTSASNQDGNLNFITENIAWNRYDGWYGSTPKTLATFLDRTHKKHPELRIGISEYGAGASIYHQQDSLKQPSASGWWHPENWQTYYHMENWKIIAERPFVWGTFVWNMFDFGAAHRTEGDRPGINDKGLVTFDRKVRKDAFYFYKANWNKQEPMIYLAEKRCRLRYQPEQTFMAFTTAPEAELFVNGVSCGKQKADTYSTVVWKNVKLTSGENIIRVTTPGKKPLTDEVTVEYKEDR
# Chain of EcGUS (P05804 whole entry): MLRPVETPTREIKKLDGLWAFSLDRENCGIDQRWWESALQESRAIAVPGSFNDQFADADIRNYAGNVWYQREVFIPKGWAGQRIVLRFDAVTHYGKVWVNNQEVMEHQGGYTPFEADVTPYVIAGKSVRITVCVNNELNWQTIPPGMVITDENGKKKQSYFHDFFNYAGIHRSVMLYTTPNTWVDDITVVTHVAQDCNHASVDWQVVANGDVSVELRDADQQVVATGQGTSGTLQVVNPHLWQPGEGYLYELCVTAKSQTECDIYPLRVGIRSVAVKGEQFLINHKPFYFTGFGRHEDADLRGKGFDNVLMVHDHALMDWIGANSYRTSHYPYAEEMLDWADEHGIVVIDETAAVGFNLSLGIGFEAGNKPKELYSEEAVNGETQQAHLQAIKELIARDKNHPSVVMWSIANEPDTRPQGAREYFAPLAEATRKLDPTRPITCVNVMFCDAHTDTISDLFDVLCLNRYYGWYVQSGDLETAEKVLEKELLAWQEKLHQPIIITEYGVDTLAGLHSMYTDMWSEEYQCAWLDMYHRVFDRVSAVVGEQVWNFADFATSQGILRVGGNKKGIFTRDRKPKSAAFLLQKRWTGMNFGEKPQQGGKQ
compound,measurement,setting,value
O=C(O)[C@H]1O[C@@H](Oc2ccc([N+](=O)[O-])cc2)[C@H](O)[C@@H](O)[C@@H]1O [PNPG],absorbance of p-nitrophenol at 410 nm,BuGUS,PNPG kinetic studies with each enzyme at its optimum pH
same,absorbance of p-nitrophenol at 410 nm,BfGUS,PNPG kinetic studies with each enzyme at its optimum pH
same,absorbance of p-nitrophenol at 410 nm,BdGUS,PNPG kinetic studies with each enzyme at its optimum pH
same,absorbance of p-nitrophenol at 410 nm,EcGUS,E. coli and Eu. eligens GUS are remarkably efficient at PNPG processing
same,absorbance of p-nitrophenol at 410 nm,EeGUS,E. coli and Eu. eligens GUS are remarkably efficient at PNPG processing
same,absorbance of p-nitrophenol at 410 nm,PmGUS,PNPG kinetic studies with each enzyme at its optimum pH
